Key:
Assay type in all cases: functional
[1] = tested on: HeLa; assay: Induction of apoptosis in human HeLa cells assessed as early apoptotic cells at 26.1 uM incubated for 48 hrs by annexinV-FITC/propidium iodide staining based flow cytometry analysis (reference value: 0.1%)
[2] = tested on: HeLa; assay: Induction of apoptosis in human HeLa cells assessed as viable cells at 26.1 uM incubated for 48 hrs by annexinV-FITC/propidium iodide staining based flow cytometry analysis (reference value: 99.8%); details: read-out: Activity
[3] = tested on: HeLa; assay: Induction of apoptosis in human HeLa cells assessed as viable cells at 13.2 uM incubated for 48 hrs by annexinV-FITC/propidium iodide staining based flow cytometry analysis (reference value: 99.8%); details: read-out: Activity
[4] = tested on: HeLa; assay: Induction of apoptosis in human HeLa cells assessed as late apoptotic cells at 13.2 uM incubated for 48 hrs by annexinV-FITC/propidium iodide staining based flow cytometry analysis (reference value: 0.1%)
[5] = tested on: HeLa; assay: Induction of apoptosis in human HeLa cells assessed as necrotic cells at 13.2 uM incubated for 48 hrs by annexinV-FITC/propidium iodide staining based flow cytometry analysis (reference value: 0.0%)
[6] = tested on: HeLa; assay: Induction of apoptosis in human HeLa cells assessed as viable cells at 19.6 uM incubated for 48 hrs by annexinV-FITC/propidium iodide staining based flow cytometry analysis (reference value: 99.8%); details: read-out: Activity
[7] = tested on: HeLa; assay: Induction of apoptosis in human HeLa cells assessed as early apoptotic cells at 19.6 uM incubated for 48 hrs by annexinV-FITC/propidium iodide staining based flow cytometry analysis (reference value: 0.1%)
[8] = tested on: HeLa; assay: Induction of apoptosis in human HeLa cells assessed as necrotic cells at 19.6 uM incubated for 48 hrs by annexinV-FITC/propidium iodide staining based flow cytometry analysis (reference value: 0.0%)
[9] = tested on: HeLa; assay: Induction of cell cycle arrest in human HeLa cells assessed as <2N cells at 12.3 uM incubated for 12 hrs by RNAse A/PI staining based flow cytometric analysis (reference value: 41.6%)
[10] = tested on: HeLa; assay: Induction of cell cycle arrest in human HeLa cells assessed as 2N cells at 12.3 uM incubated for 12 hrs by RNAse A/PI staining based flow cytometric analysis (reference value: 29.9%)
[11] = tested on: HeLa; assay: Induction of cell cycle arrest in human HeLa cells assessed as S phase cells at 12.3 uM incubated for 12 hrs by RNAse A/PI staining based flow cytometric analysis (reference value: 20.5%)
[12] = tested on: HeLa; assay: Induction of cell cycle arrest in human HeLa cells assessed as >4N cells at 12.3 uM incubated for 12 hrs by RNAse A/PI staining based flow cytometric analysis (reference value: 2.61%)
[13] = tested on: HeLa; assay: Induction of cell cycle arrest in human HeLa cells assessed as <2N cells at 12.3 uM incubated for 24 hrs by RNAse A/PI staining based flow cytometric analysis (reference value: 41.6%)
[14] = tested on: HeLa; assay: Induction of cell cycle arrest in human HeLa cells assessed as 2N cells at 12.3 uM incubated for 24 hrs by RNAse A/PI staining based flow cytometric analysis (reference value: 29.9%)
[15] = tested on: HeLa; assay: Induction of cell cycle arrest in human HeLa cells assessed as S phase cells at 12.3 uM incubated for 24 hrs by RNAse A/PI staining based flow cytometric analysis (reference value: 20.5%)
[16] = tested on: HeLa; assay: Induction of cell cycle arrest in human HeLa cells assessed as 4N cells at 12.3 uM incubated for 24 hrs by RNAse A/PI staining based flow cytometric analysis (reference value: 5.37%)
[17] = tested on: HeLa; assay: Induction of cell cycle arrest in human HeLa cells assessed as <2N cells at 6.2 uM incubated for 48 hrs by RNAse A/PI staining based flow cytometric analysis (reference value: 41.6%)
[18] = tested on: HeLa; assay: Induction of cell cycle arrest in human HeLa cells assessed as S phase cells at 6.2 uM incubated for 48 hrs by RNAse A/PI staining based flow cytometric analysis (reference value: 20.5%)
[19] = tested on: HeLa; assay: Induction of cell cycle arrest in human HeLa cells assessed as >4N cells at 6.2 uM incubated for 48 hrs by RNAse A/PI staining based flow cytometric analysis (reference value: 2.61%)
[20] = tested on: HeLa; assay: Induction of cell cycle arrest in human HeLa cells assessed as <2N cells at 12.3 uM incubated for 48 hrs by RNAse A/PI staining based flow cytometric analysis (reference value: 41.6%)
[21] = tested on: HeLa; assay: Induction of cell cycle arrest in human HeLa cells assessed as S phase cells at 12.3 uM incubated for 48 hrs by RNAse A/PI staining based flow cytometric analysis (reference value: 20.5%)
[22] = tested on: HeLa; assay: Induction of cell cycle arrest in human HeLa cells assessed as 4N cells at 12.3 uM incubated for 48 hrs by RNAse A/PI staining based flow cytometric analysis (reference value: 5.37%)
[23] = tested on: HeLa; assay: Induction of cell cycle arrest in human HeLa cells assessed as <2N cells at 24.6 uM incubated for 48 hrs by RNAse A/PI staining based flow cytometric analysis (reference value: 41.6%)
[24] = tested on: HeLa; assay: Induction of cell cycle arrest in human HeLa cells assessed as 2N cells at 24.6 uM incubated for 48 hrs by RNAse A/PI staining based flow cytometric analysis (reference value: 29.9%)
[25] = tested on: HeLa; assay: Induction of cell cycle arrest in human HeLa cells assessed as S phase cells at 24.6 uM incubated for 48 hrs by RNAse A/PI staining based flow cytometric analysis (reference value: 20.5%)
[26] = tested on: HeLa; assay: Induction of cell cycle arrest in human HeLa cells assessed as 4N cells at 24.6 uM incubated for 48 hrs by RNAse A/PI staining based flow cytometric analysis (reference value: 5.37%)
[27] = tested on: HeLa; assay: Induction of cell cycle arrest in human HeLa cells assessed as >4N cells at 24.6 uM incubated for 48 hrs by RNAse A/PI staining based flow cytometric analysis (reference value: 2.61%)
[28] = tested on: HeLa; assay: Induction of cell cycle arrest in human HeLa cells assessed as accumulation at G2/M phase at 6.2 uM by RNAse A/PI staining based flow cytometric analysis relative to control
[29] = tested on: HeLa; assay: Induction of cell cycle arrest in human HeLa cells assessed as accumulation at G2/M phase at 12.3 uM by RNAse A/PI staining based flow cytometric analysis relative to control
[30] = tested on: HeLa; assay: Induction of cell cycle arrest in human HeLa cells assessed as accumulation at G2/M phase at 24.6 uM by RNAse A/PI staining based flow cytometric analysis relative to control
[31] = tested on: HeLa; assay: Induction of mitochondrial membrane potential loss in human HeLa cells assessed as decrease in fluorescence intensity […] at 6.2 uM by Rhodamine 123 staining based flow cytometric analysis (reference value: 58.0%); design: scale not given: the % may be the effect or the level left
[32] = tested on: HeLa; assay: Induction of mitochondrial membrane potential loss in human HeLa cells assessed as decrease in fluorescence intensity […] at 24.6 uM by Rhodamine 123 staining based flow cytometric analysis (reference value: 58.0%); design: scale not given: the % may be the effect or the level left

`CC[C@H](C)[C@@H]1NC(=O)[C@H](CC(C)C)NC(=O)[C@@H]2CSCN2C(=O)[C@@H]2CSCN2C(=O)CN2C(=O)c3ccccc3[C@@]2(O)CN(Cc2ccccc2)C1=O` gave an Activity [1] of 34.6%, a viability at 26.1 µM [2] of 58% and a viability at 13.2 µM [3] of 84.5%. It also gave an Activity [4] of 7.3%, an Activity [5] of 2.6% and a viability at 19.6 µM [6] of 68.6%. The Activity [7] was 23.3%, the Activity [8] was 1.3% and the Activity [9] was 33.1%. It also gave an Activity [10] of 28.8%, an Activity [11] of 11.5% and an Activity [12] of 9.83%. It also gave an Activity [13] of 33%, an Activity [14] of 20.6% and an Activity [15] of 10.2%. The Activity [16] was 25.1%, the Activity [17] was 37.5% and the Activity [18] was 11.1%. It also gave an Activity [19] of 9.53%, an Activity [20] of 14.9% and an Activity [21] of 21.3%. The Activity [22] was 35.7%, the Activity [23] was 14.4% and the Activity [24] was 28.8%. For the same molecule, the Activity [25] was 5.72%, the Activity [26] was 47.5% and the Activity [27] was 3.51%. For the same molecule, the Activity [28] was 17%, the Activity [29] was 35.7% and the Activity [30] was 47.5%. The Activity [31] was 52.6% and the Activity [32] was 19.4%.

Reference: ChEMBL document CHEMBL5120939, “Novel Isoindolinone-Based Analogs of the Natural Cyclic Peptide Fenestin A: Synthesis and Antitumor Activity” (ACS Med Chem Lett, 2022)
